Entries after “also recorded” stand apart in the source; their conditions may differ.
Key:
BALB/c mice [1] = assay: Splenocyte restimulation with M72 and intracellular cytokine staining of CD4/CD8 T cells after vaccination; type: in vivo, mouse
Method: (§1) Animal studies were carried out in an OLAW and AAALAC accredited vivarium in accordance with University of Montana's IACUC guidelines for the care and use of laboratory animals. Groups of 10–14 BALB/c mice were vaccinated intramuscularly with 0.125 μg M72 antigen and indicated concentrations of various CLR adjuvant candidates (liposomal formulations) in 50 μl total volume per injection. After 14 days, blood and serum samples were collected and a secondary vaccination was administered. At day 19 (5 days post-secondary vaccination), 3–6 mice per group were euthanized and spleens were harvested the assessment of cell-mediated immunity. At day 28 (14 days post booster vaccination) the remaining 7 mice in each group were euthanized and blood was collected for the measurement of M72 specific humoral immunity.
Spleens were harvested from vaccinated mice 5 days after secondary injections and splenocytes were harvested by disruption of the spleens through a 100 μm filter. Red blood cells were lysed by incubation with red blood cell lysis buffer (Sigma) for 5 min followed by washing in 1x PBS. Cells were plated in a 96 well plate at 5 × 10^6 cells/well in 200 μL complete RPMI1640 media. Cells were incubated with 1 μg/mL M72 antigen for […] at 37°C. After 7 h, GolgiPlug (Brefeldin A, BD Biosciences) was added to each well and incubated at 37°C for a further 12 h. Following incubation, cells were stained with the cell surface antibodies against CD3e PerCP-Cy5.5 (Tonbo Biosciences, 145-2C11), CD4a APC-Cy7 (Tonbo Biosciences, RM4-5) and CD8a PE-Cy7 (Tonbo Biosciences, 53–6.7) and viability stain (Ghost 510, Tonbo Biosciences). Cells were treated with cytofix/cytoperm (BD) and stained with anti-IFNγ PE-CF594 (BD, XMG1.2), anti-IL2 FITC (Biolegend, JES6-5H4), anti-IL-5 PE (BD, TRFK5), anti-IL17A BV421 (Biolegend, TC11-18H10.1), and anti-TNFα APC (Invitrogen, MP6-XT22). Data was collected using an LSRII flow cytometer (BD) and analyzed using FlowJo 10.0 software (TreeStar). Splenocytes were gated on live, single cells, then CD3+ to identify all T cells, then gated as CD4+CD8- to identify CD4 T cells or CD4-CD8+ to identify CD8 T cells. Gates for intracellular cytokine positive CD4 or CD8 T cells are set based on re-stimulation of naïve splenocytes. Gating strategies for the detection of antigen specific CD4+ and CD8+ T cells are outlined in Supplemental Figure 3.
Figure 7 Induction of IL-17 producing CD4+ and CD8+ T cells from an αTDE adjuvanted M72 vaccine. BALB/c mice, 10 per group, were immunized two times i.m. with 0.125 μg antigen plus 2, 10, or 50 nmol of the indicated adjuvant. Spleens were harvested from a subset of 3 mice per group at 5 days post-secondary vaccination. Splenocytes were restimulated with 1 μg/mL whole antigen and transport inhibitors followed by surface staining for CD3, CD4, and CD8 and then intracellular cytokine staining. Data represent percentage of live, CD3^+/CD4^+, left, or CD3^+/CD8^+, right, cells that are also positive for IL-17A upon stimulation.
(§2) Figure 8 B16 liposomes biases a Th17/Th2 adaptive immune response. BALB/c mice, 14 per group, were immunized twice, 14 days apart, i.m with 0.1, 1, or 10 μg of M72 antigen plus either blank DDA:DSPC liposome or B16 loaded (10 nmol final dose) liposome. (A,B) M72-specific serum antibody titers at 14 days post-secondary vaccination. (C–F) Spleens were harvested from mice at 5 days post-secondary vaccination and restimulated with 1 μg/mL whole antigen and transport inhibitors followed by surface staining for CD3, CD4, and CD8 and then intracellular cytokine staining. (C) Percent of live, CD3^+/CD4^+/IL5+ cells, (D) Percent of live, CD3^+/CD8^+/IFNγ+ cells, (E) Percent of live, CD3^+/CD4^+/IL17+ cells, and (F) Percent of live, CD3^+/CD8^+/IL17+ cells. ^*p < 0.05, ^**p < 0.01, ^****p < 0.001.
Supplemental Figure 10. Production of IFNɣ, IL-2, IL-5 or TNFα by CD4 or CD8 T cells in response to various CLR compounds. […]

RAW264.7 cells = assay: Liposome formulations tested in RAW264.7 cells, TNFα ELISA; type: cell-based, mouse; conditions: formulated in DDA:DSPC liposome, 24 hours
BALB/c mice [2] = assay: Anti-M72 serum antibody ELISA after i.m. vaccination with M72 antigen plus liposomal adjuvant; type: in vivo, mouse
Method: as §1
Sera was collected from mice 14 days post-primary and 14 days post-secondary injection and diluted according to the expected antibody response (between 1:10 and 1:5000). Plates were coated with 100 μl of the full-length M72 protein at 1 μg/mL. Following washing (PBS plus tween 20) and blocking (SuperBlock, Scytek Laboratories), plates were incubated with diluted serum for 1 h followed by anti-mouse IgG, IgG1, or IgG2a-HRP secondary antibody (Bethyl Laboratories) and TMB substrate (BD). Plates were read at 450 nm. Antibody titers were determined by calculating titer of each sample at OD 0.3.
Figure 6 Serum antibody levels from mice in response to vaccination with recombinant M72 antigen and various αTDE compounds. BALB/c mice, 10 per group, were vaccinated two times i.m. with 0.125 μg antigen plus 2, 10, or 50 nmol of the indicated adjuvant. Serum was analyzed from 7 mice at 14 days post-secondary vaccination for presence of anti-M72 IgG1 and IgG2a antibodies via ELISA.
as §2

[3] = system: Hek Blue human or mouse Mincle-expressing cells; type: cell-based; conditions: top concentrations, 24 h; compared with vehicle only-treated cells

In the case of `CCCCCCCC(CCCCCCC)C(=O)OC[C@H]1O[C@H](O[C@H]2O[C@H](COC(=O)C(CCCCCCC)CCCCCCC)[C@@H](O)[C@H](O)[C@H]2O)[C@H](O)[C@@H](O)[C@@H]1O` [Compound B16], the “Frequencies of IFNγ+ CD8 T cells or IFNγ+ CD4 T cells” value (BALB/c mice [1]; 10 nmol B16, 0.1, 1 or 10 μg M72, between groups) is reported as “no differences”, the “IL-2+ CD4 T cells” value (BALB/c mice [1]; 10 nmol B16, 0.1, 1 or 10 μg M72, compared to blank liposome) is reported as “similarly increased only in the middle dose” and the “Frequencies of TNFα+ CD4 T cells” value (BALB/c mice [1]; 10 nmol B16, compared to antigen matched blank liposome groups) is reported as “not increased”. The “Frequencies of IL-5+ CD4 T cells” value (BALB/c mice [1]; 10 nmol B16, highest antigen dose tested) was “no difference is observed”, the “Frequencies of IL-5+, IL-2+, and TNFα+ CD8 T cells” value (BALB/c mice [1]; 10 nmol B16, highest dose of antigen) was “not at the highest dose” and the “Frequencies of IL-5+, IL-2+, and TNFα+ CD8 T cells” value (BALB/c mice [1]; 10 nmol B16, lower doses of antigen, compared to antigen plus blank liposome) was “also increased”. The “Frequencies of IL-5+ CD4 T cells” value (BALB/c mice [1]; 10 nmol B16, two lower doses of antigen, compared to antigen plus blank liposome) was “similarly increased”, the “Frequencies of IL-17+ CD4 and CD8 T cells” value (BALB/c mice [1]; 10 nmol liposomal B16 with 0.1 μg and 1 μg M72/mouse, compared to antigen plus blank liposomes) was “significantly higher frequencies” and the “Frequencies of IL-17+ CD4 and CD8 T cells” value (BALB/c mice [1]; 10 nmol liposomal B16 with 10 μg M72, compared to antigen plus blank liposome) was “not significant”. The “IL-17+ CD4+ and CD8+ T cells (Th17 response) after M72 re-stimulation” value (BALB/c mice [1]; 0.125 μg antigen plus 2, 10, or 50 nmol liposomal adjuvant, i.m. two times, spleens 5 days post-secondary) was “greatest frequency of IL-17+ cells; also recorded: more effective”, the “TNFα secretion from RAW cells in response to liposome formulation” value (RAW264.7 cells) was “higher levels of TNFα secretion compared to B42” and the “M72 specific serum IgG1 and IgG2a antibody titers” value (BALB/c mice [2]; 10 nmol B16 liposome, increasing doses of M72 antigen (0.1, 1, 10 μg), 14 dp2) was “significantly improved”. For the same compound, the “M72 specific serum antibody titers” value (BALB/c mice [2]; 10 nmol B16 liposome, lowest dose of M72 antigen (0.1 μg)) was “did not exhibit significantly higher antibody titers”, the “Anti-M72 serum IgG1 and IgG2a antibody” value (BALB/c mice [2]; 0.125 μg M72 antigen plus 2, 10, or 50 nmol adjuvant in DDA:DSPC liposomes, i.m. two times, 14 days post-secondary vaccination) was “neither compound significantly enhanced” and the “Cell viability of Mincle HEK cells” value [3] was “less substantial decreases”.
